The values below come from patent US20130121921A1, “Rodent Therapeutic Model And Methods” (The Christus Stehlin Foundation For Cancer Research, priority 2011, published 2013).

Data set [1] deals with humanized NSG mice. In words: toxicity of CPT given by gavage to humanized and non-humanized NSG mice (weight, blood cell counts). Type of data set: in vivo, mouse. The method, then:
Once maximum engraftment is reached as measured in Example 1 or 2, initial validation experiments are performed. A reasonable number of doubly humanized mice are obtained within approximately 5 to 6 months from the start of the humanizing process, i.e., 10-12 NSG mice with a >80% human BM and a >60% HSA in their blood. […] Camptothecin (CPT) is administered by gavage to humanized and non-humanized mice. At normal pH, CPT exists in equilibrium between two states: lactone and carboxylate. In the mouse, equilibrium is around 50% for each isoform. However, in human blood, due to an affinity for human serum albumin (HSA), the equilibrium moves towards the carboxylate form, leaving only 3%-5% total CPT in the active lactone form, see Giovanella et al., Annals New York Academy of Sciences 922: 27-35, 2000. The double humanized mouse can act akin to a human in this respect. Higher and higher doses of CPT are administered starting with a dose of 0.5 mg/kg orally by gavage given daily for 5 days followed by 2 days of rest for 3 weeks. Animals are weighed twice a week and their weight recorded. Blood is taken twice a week and blood cells counted. If no toxicity is found, the dose is raised by 50% and the procedure repeated until toxicity is obtained.

For data set [2] the following is noted: in the mouse, normal pH; cited from earlier work.
The subject of data set [3] is human tumors. In words: xenograft test repeated in mice with higher percentage of human bone marrow and hepatocytes. The data set is classed as in vivo, mouse. Particulars: less humanized vs more humanized group. As for the experimental part:
The procedures in any one or combination of Examples 1-4 are performed with mice having a higher percentage of human bone marrow and hepatocytes. Rather than having a non-human control, the control can be instead, or in addition, mice having the percentage of human bone marrow (and/or human cord blood) used in the experimental group in the first performance of the procedures. Double humanized mice are further supplemented with human or humanized intestinal enzymes to form a triply humanized mouse (bone marrow, liver, and intestinal enzymes), which is then be used as a predictor of human response to anticancer agents. A mouse having humanized intestinal enzymes can be constructed, for example, as described in van Herwaarden et al., J. Clin. Invest., 117 (11):3583-3592, 2007. […] A human dose for CPT can be redetermined and suitability of the drug for treatment of humans can be redetermined.

The target in data set [4] is human serum albumin (HSA) (Homo sapiens, UniProt P02768). Particulars: human blood, equilibrium moved towards carboxylate by affinity for HSA; cited from earlier work.
human serum albumin (HSA), sequence (P02768 25-609): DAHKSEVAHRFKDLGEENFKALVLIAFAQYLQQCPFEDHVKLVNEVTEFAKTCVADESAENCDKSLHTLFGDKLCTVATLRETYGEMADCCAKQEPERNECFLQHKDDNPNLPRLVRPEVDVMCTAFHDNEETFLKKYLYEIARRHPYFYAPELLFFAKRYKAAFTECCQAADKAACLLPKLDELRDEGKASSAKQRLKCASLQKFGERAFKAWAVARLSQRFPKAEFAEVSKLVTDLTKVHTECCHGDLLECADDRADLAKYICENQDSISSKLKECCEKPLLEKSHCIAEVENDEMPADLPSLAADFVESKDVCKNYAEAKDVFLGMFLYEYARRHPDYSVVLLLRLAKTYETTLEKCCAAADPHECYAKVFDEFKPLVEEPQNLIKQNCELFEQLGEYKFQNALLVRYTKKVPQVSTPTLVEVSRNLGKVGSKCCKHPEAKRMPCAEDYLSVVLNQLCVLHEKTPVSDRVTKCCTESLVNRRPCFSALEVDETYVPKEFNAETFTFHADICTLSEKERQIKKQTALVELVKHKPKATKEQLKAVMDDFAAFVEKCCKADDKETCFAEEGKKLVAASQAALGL
The test system of data set [5] is human tumors. In words: human tumors xenotransplanted subcutaneously in humanized and non-humanized NSG mice, treated at MTD of CPT. The data set is classed as in vivo, mouse. To be noted: non-humanized vs humanized group, each at its own MTD. The method, then:
Once a maximum tolerated dose (MTD) for humanized NSG mice and MTD for non-humanized ones is obtained using the procedure described in Example 3, final validation experiments are performed. Six human tumors are xenotransplanted subcutaneously on the dorsal flank in humanized and non-humanized NSG mice. Once the tumors become palpable, the animals are treated with the MTD dose of CPT of their group, i.e., the humanized mice with the humanized MTD and the non-humanized mice with their MTD. The tumors are measured with calipers twice a week and the results recorded. […] A human dose for CPT can be determined and suitability of the drug for treatment of humans can be determined. The experiments can be performed substituting one or more drugs in place of CPT. The experiments can be performed using one or more drugs in addition to CPT. The experiments can be performed by using introduction of human leukemia cancer cells or other non-solid tumor human cancer cells into the rodent instead of xenotransplantation of solid tumors. Such cancers can be evaluated based on alternative metrics such as cell count.

In the case of `CC[C@@]1(O)C(=O)OCc2c1cc1n(c2=O)Cc2cc3ccccc3nc2-1` [CPT, Camptothecin], in data set [1] (human bone marrow cells vs mouse cells), the “sensitivity of human bone marrow cells present in the mouse” value is “more sensitive to camptothecin than mouse cells”. In addition, the “hematological toxicity of CPT” value in data set [1] (humanized NSG mice, relation to percentage of human bone marrow) is “directly proportional to the percentage of human bone marrow”. For the same compound, the “toxicity of CPT for humanized mice” value in data set [1] (oral gavage from 0.5 mg/kg daily x5, 2 days rest, 3 weeks, dose raised by 50%, humanized vs non-humanized mice) is “Higher toxicity”. In data set [2], the “equilibrium share of each isoform (lactone and carboxylate)” value is “around 50%”. Also, the “anticancer activity (relative size of the tumors)” value is “higher anticancer activity of CPT in the less humanized group” in data set [3] and “much higher anticancer activity of CPT in the non-humanized group” in data set [5]. Also, in data set [4], the “total CPT in the active lactone form” value is recorded as 3%-5%.
